Data published in ChEMBL document CHEMBL1201862, “PubChem BioAssay data set” (2004).
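How tested: cells in 96-well plates exposed to compound for 48 hours at five concentrations. Abbreviation: GI50, concentration required for 50% inhibition of growth.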 Active and inactive are the calls of the source. No stated cut-off is given here; in the data, active = GI50 up to about 1.1 µM and inactive = higher.

Columns and labels:
Assay in all cases: NCI tumour cell line growth inhibition, 48 h
SK-MEL-2 = system: SK-MEL-2
HOP-62 = system: HOP-62
NCI-H522 = system: NCI-H522
SF-295 = system: SF-295
HCT-15 = system: HCT-15
OVCAR-5 = system: OVCAR-5
UACC-257 = system: UACC-257
M14 = system: M14
SNB-19 = system: SNB-19
SNB-75 = system: SNB-75
OVCAR-8 = system: OVCAR-8
HL-60 = system: HL-60
UACC-62 = system: UACC-62
Malme-3M = system: Malme-3M
SW-620 = system: SW-620
RXF 393 = system: RXF 393

Compound | GI50 (SK-MEL-2) | GI50 (HOP-62) | GI50 (NCI-H522) | GI50 (SF-295) | GI50 (HCT-15) [µM] | GI50 (OVCAR-5) | GI50 (UACC-257) | GI50 (M14) | GI50 (SNB-19) | GI50 (SNB-75) | GI50 (OVCAR-8) | GI50 (HL-60) | GI50 (UACC-62) | GI50 (Malme-3M) | GI50 (SW-620) | GI50 (RXF 393)
CCCCNC(=O)CCN(C(=O)O)S(=O)(=O)c1ccc(NC(=O)c2ccccc2)cc1 | > 100 µM (inactive) | > 100 µM (inactive) | > 100 µM (inactive) | > 100 µM (inactive) | > 100 | > 100 µM (inactive) | > 100 µM (inactive) | > 100 µM (inactive) | > 100 µM (inactive) | > 100 µM (inactive) | > 100 µM (inactive) | > 100 µM (inactive) | > 100 µM (inactive) | > 100 µM (inactive) | 14 µM (inactive) | 
Cc1ccc(NC(=O)COC(=O)c2cccc3c(=O)c4ccccc4[nH]c23)cc1 |  | 60.5 µM (inactive) | 9.29 µM (inactive) | 35.7 µM (inactive) |  |  | 39.9 µM (inactive) | 68.5 µM (inactive) | 40.6 µM (inactive) | 31.3 µM (inactive) | 35.3 µM (inactive) | 38.3 µM (inactive) | 30.6 µM (inactive) | 47 µM (inactive) | 21.5 µM (inactive) | 22.8 µM (inactive)
Cc1nc2c(s/c(=N\N)n2-c2ccccc2)c(=O)n1C | > 100 µM (inactive) |  | > 100 µM (inactive) | > 100 µM (inactive) | > 100 | > 100 µM (inactive) | > 100 µM (inactive) | > 100 µM (inactive) | > 100 µM (inactive) | > 100 µM (inactive) | > 100 µM (inactive) | > 100 µM (inactive) | > 100 µM (inactive) |  | > 100 µM (inactive) | > 100 µM (inactive)
CCOC(=O)NC(=O)c1cn(CCOCCOC(=O)NCCCCCCNC(=O)OCCOCCn2cc(C(=O)NC(=O)OCC)c(=O)[nH]c2=O)c(=O)[nH]c1=O | > 100 µM (inactive) | > 100 µM (inactive) | > 100 µM (inactive) | > 100 µM (inactive) | > 100 | > 100 µM (inactive) | > 100 µM (inactive) | > 100 µM (inactive) | > 100 µM (inactive) | > 100 µM (inactive) | > 100 µM (inactive) | > 100 µM (inactive) | > 100 µM (inactive) | > 100 µM (inactive) | > 100 µM (inactive) | > 100 µM (inactive)
COC(=O)c1ccc(Cl)cc1NC(=O)C1CCCCC1 | > 100 µM (inactive) |  | > 100 µM (inactive) | > 100 µM (inactive) | > 100 | > 100 µM (inactive) | > 100 µM (inactive) |  | > 100 µM (inactive) |  | > 100 µM (inactive) |  |  | > 100 µM (inactive) | > 100 µM (inactive) | 20.3 µM (inactive)
CNC(=O)OCc1c2ccncc2c(C)c2c1[nH]c1ccc(OC)cc12 | 0.181 µM (active) | 0.156 µM (active) | 0.0805 µM (active) | 0.352 µM (active) | 0.495 | 0.247 µM (active) |  | 0.57 µM (active) | 0.267 µM (active) |  | 0.209 µM (active) | 0.204 µM (active) | 0.16 µM (active) | 0.353 µM (active) | 0.164 µM (active) | 
O=C1C(=O)C(Br)(Br)C(Br)=C1Br | 17.1 µM (inactive) | > 100 µM (inactive) | 2.33 µM (inactive) | 57.4 µM (inactive) | 19.8 | 13.6 µM (inactive) | 20.3 µM (inactive) | 17.6 µM (inactive) | 68.9 µM (inactive) | 14.4 µM (inactive) | 17.3 µM (inactive) | 18.7 µM (inactive) | 18.5 µM (inactive) | 20 µM (inactive) | 13.8 µM (inactive) | > 10 µM (inactive)
COC(=O)/C(=N\NC(C)(C)C)C(C(=O)OC)C(=O)C(=O)Nc1cc(Cl)ccc1Cl (stereo not given) | > 100 µM (inactive) | > 100 µM (inactive) | > 100 µM (inactive) | > 100 µM (inactive) | > 100 | > 100 µM (inactive) | > 100 µM (inactive) | > 100 µM (inactive) | > 100 µM (inactive) | > 100 µM (inactive) | > 100 µM (inactive) | > 100 µM (inactive) | > 100 µM (inactive) | > 100 µM (inactive) | > 100 µM (inactive) | > 100 µM (inactive)
CC1(C(=O)NCCN(CCNC(=O)C2(C)CC3(C)CC(C)(C2)C(=O)NC3=O)CCNC(=O)C2(C)CC3(C)CC(C)(C2)C(=O)NC3=O)CC2(C)CC(C)(C1)C(=O)NC2=O (stereo not given) | > 100 µM (inactive) | > 100 µM (inactive) |  | > 100 µM (inactive) | > 100 |  | > 100 µM (inactive) | > 100 µM (inactive) | > 100 µM (inactive) | > 100 µM (inactive) | > 100 µM (inactive) | > 100 µM (inactive) | > 100 µM (inactive) |  | > 100 µM (inactive) | > 100 µM (inactive)
COC1OC(COS(=O)(=O)c2ccc(C)cc2)C(O)C(OS(=O)(=O)c2ccc(C)cc2)C1OS(=O)(=O)c1ccc(C)cc1 (stereo not given) | > 100 µM (inactive) | > 100 µM (inactive) | > 100 µM (inactive) | > 100 µM (inactive) | > 100 | > 100 µM (inactive) | > 100 µM (inactive) | > 100 µM (inactive) | > 100 µM (inactive) | 95.9 µM (inactive) | > 100 µM (inactive) | > 100 µM (inactive) |  | > 100 µM (inactive) | 16 µM (inactive) | > 100 µM (inactive)
Cc1nn(C(=O)CC(=O)Nc2ccc(Cl)cc2)c(C)c1/N=N/c1ccccc1C(=O)O | > 100 µM (inactive) | > 100 µM (inactive) | > 100 µM (inactive) | > 100 µM (inactive) | > 100 | > 100 µM (inactive) | > 100 µM (inactive) | > 100 µM (inactive) | > 100 µM (inactive) | 39.5 µM (inactive) | > 100 µM (inactive) | > 100 µM (inactive) | > 100 µM (inactive) | > 100 µM (inactive) | > 100 µM (inactive) | 
C/C=C1\CN2CCc3c([nH]c4ccccc34)C2C=C1CCO (stereo not given) | > 340 µM (inactive) | > 340 µM (inactive) | > 340 µM (inactive) | > 340 µM (inactive) | > 340 | > 340 µM (inactive) | > 340 µM (inactive) |  | > 340 µM (inactive) |  | > 340 µM (inactive) | > 340 µM (inactive) | > 340 µM (inactive) | > 340 µM (inactive) | > 340 µM (inactive) | > 340 µM (inactive)
O=C(O)CNS(=O)(=O)c1ccc(NC(=O)c2cccc([N+](=O)[O-])c2)cc1 | > 100 µM (inactive) |  | > 100 µM (inactive) | > 100 µM (inactive) | > 100 | > 100 µM (inactive) | > 100 µM (inactive) | > 100 µM (inactive) | > 100 µM (inactive) | > 100 µM (inactive) | > 100 µM (inactive) | > 100 µM (inactive) | > 100 µM (inactive) | > 100 µM (inactive) | > 100 µM (inactive) | > 100 µM (inactive)
CC(=O)n1c2ccccc2c2nc3nc(Oc4ccc(C)cc4)c4ccccc4c3cc21 | > 100 µM (inactive) | 57 µM (inactive) | > 100 µM (inactive) | 66.2 µM (inactive) | > 100 | > 100 µM (inactive) | > 100 µM (inactive) | > 100 µM (inactive) | 92 µM (inactive) | 44.2 µM (inactive) | > 100 µM (inactive) |  | > 100 µM (inactive) | > 100 µM (inactive) | > 100 µM (inactive) | 
CNS(=O)(=O)NNS(=O)(=O)c1ccccc1 | > 100 µM (inactive) | > 100 µM (inactive) | > 100 µM (inactive) | > 100 µM (inactive) | > 100 | > 100 µM (inactive) | > 100 µM (inactive) | > 100 µM (inactive) | > 100 µM (inactive) | > 100 µM (inactive) | > 100 µM (inactive) | > 100 µM (inactive) | > 100 µM (inactive) | > 100 µM (inactive) | > 100 µM (inactive) | > 100 µM (inactive)
O=C(/C=C/c1ccccc1)/C=C/c1ccccc1 | > 100 µM (inactive) | > 100 µM (inactive) |  | 53.5 µM (inactive) | 23.6 | > 100 µM (inactive) | 24.4 µM (inactive) | 19.8 µM (inactive) |  | 47.6 µM (inactive) |  | 23.2 µM (inactive) | 33 µM (inactive) | 21.8 µM (inactive) | 17.4 µM (inactive) | 34.4 µM (inactive)
O=C(OCCOCCOC(=O)c1c[nH]cc1-c1ccccc1)c1c[nH]cc1-c1ccccc1 |  | 17.3 µM (inactive) | 15.3 µM (inactive) | 18.4 µM (inactive) | 19.2 | 25.8 µM (inactive) | 18.7 µM (inactive) | 14.8 µM (inactive) | 24.3 µM (inactive) | 17.2 µM (inactive) | 29.4 µM (inactive) | 17.9 µM (inactive) | 15.9 µM (inactive) | 18.9 µM (inactive) | 28.4 µM (inactive) | 15.4 µM (inactive)
C=C(CCCCC)CN1CCCC1[C@@](C)(O)CC(=O)OCC (stereo not given in full) | > 100 µM (inactive) | > 100 µM (inactive) | > 100 µM (inactive) | > 100 µM (inactive) | > 100 | > 100 µM (inactive) | > 100 µM (inactive) | > 100 µM (inactive) | > 100 µM (inactive) | > 100 µM (inactive) | > 100 µM (inactive) | 28.6 µM (inactive) | > 100 µM (inactive) | > 100 µM (inactive) | > 100 µM (inactive) | > 100 µM (inactive)
O=C1CCC2(c3ccc(Cl)cc3)Nc3cc(Cl)ccc3N12 (stereo not given) | 11.4 µM (inactive) | 15.5 µM (inactive) | 10.2 µM (inactive) | 9.04 µM (inactive) | 12.2 |  | 13.6 µM (inactive) | 15.2 µM (inactive) | 16.4 µM (inactive) | 12.2 µM (inactive) | 7.76 µM (inactive) | 1.15 µM (inactive) | 8.97 µM (inactive) | 10.7 µM (inactive) | 6.14 µM (inactive) | 11.9 µM (inactive)
